Biological target: T1, Telomerase (Homo sapiens, UniProt O14746)
T1 construct: endogenous in cells; host or cells: PBMCs isolated from blood, stimulated with 10 μg/ml PHA
Assay: Telomerase activity, TeloTAGGG telomerase PCR ELISA (TRAP assay) in PHA-treated PBMCs
Assay type: cell-based
Details: for % increase in Telomerase activity: PBMCs, 10 μg/ml PHA, 48 hours
Procedure: The assay was carried out using Telo TAGGG telomerase PCR ELISA kit (Roche). It allows highly specific amplification of telomerase mediated elongation products followed by detection through ELISA. In the first step telomerase adds the telomeric repeats (TTAGGG) tot eh 3′ end of the biotin labeled synthetic P1 primer. In the second step these elongation products are amplified using P2 and P1 primers generating telomerase specific 6 bp increments. PCR product is denatured and hybridized to a digioxigenin labeled telomere repeat specific detection probe. The resultant product is bound to a streptavidin specific miroplate via biotin labeled primer 1. The bound products are detected using anti digioxigenein antibody conjugated to horse radish peroxidase. The enzyme reaction is visualized using […] substrate.
2×10^5 PBMCs isolated from blood were seeded in RPMI 1640 medium in 6 well plates. Cells were treated with 10 μg/ml PHA along with different concentrations of ecdysterone/extracts containing ecdysterone. Cells were incubated in a humidified atmosphere with 5% CO2 for 48 hours. After 48 hours of incubation, cells were harvested and centrifuged at 3000 g for 10 minutes at 4° C. Supernatant was removed and PBS was added and centrifuged again. Pellet was suspended in lysis reagent on ice (TeloTAGGG™ Telomerase PCR ELISA). Suspension was retero pipetted at least thrice and incubated for 20 minutes on ice and centrifuged at 16000 g for 20 minutes at 4° C. TRAP assay followed by ELISA was performed as per manufacturer's instructions (TeloTAGGG™ Telomerase PCR ELISA, Merck).

T1 sequence (O14746 whole entry): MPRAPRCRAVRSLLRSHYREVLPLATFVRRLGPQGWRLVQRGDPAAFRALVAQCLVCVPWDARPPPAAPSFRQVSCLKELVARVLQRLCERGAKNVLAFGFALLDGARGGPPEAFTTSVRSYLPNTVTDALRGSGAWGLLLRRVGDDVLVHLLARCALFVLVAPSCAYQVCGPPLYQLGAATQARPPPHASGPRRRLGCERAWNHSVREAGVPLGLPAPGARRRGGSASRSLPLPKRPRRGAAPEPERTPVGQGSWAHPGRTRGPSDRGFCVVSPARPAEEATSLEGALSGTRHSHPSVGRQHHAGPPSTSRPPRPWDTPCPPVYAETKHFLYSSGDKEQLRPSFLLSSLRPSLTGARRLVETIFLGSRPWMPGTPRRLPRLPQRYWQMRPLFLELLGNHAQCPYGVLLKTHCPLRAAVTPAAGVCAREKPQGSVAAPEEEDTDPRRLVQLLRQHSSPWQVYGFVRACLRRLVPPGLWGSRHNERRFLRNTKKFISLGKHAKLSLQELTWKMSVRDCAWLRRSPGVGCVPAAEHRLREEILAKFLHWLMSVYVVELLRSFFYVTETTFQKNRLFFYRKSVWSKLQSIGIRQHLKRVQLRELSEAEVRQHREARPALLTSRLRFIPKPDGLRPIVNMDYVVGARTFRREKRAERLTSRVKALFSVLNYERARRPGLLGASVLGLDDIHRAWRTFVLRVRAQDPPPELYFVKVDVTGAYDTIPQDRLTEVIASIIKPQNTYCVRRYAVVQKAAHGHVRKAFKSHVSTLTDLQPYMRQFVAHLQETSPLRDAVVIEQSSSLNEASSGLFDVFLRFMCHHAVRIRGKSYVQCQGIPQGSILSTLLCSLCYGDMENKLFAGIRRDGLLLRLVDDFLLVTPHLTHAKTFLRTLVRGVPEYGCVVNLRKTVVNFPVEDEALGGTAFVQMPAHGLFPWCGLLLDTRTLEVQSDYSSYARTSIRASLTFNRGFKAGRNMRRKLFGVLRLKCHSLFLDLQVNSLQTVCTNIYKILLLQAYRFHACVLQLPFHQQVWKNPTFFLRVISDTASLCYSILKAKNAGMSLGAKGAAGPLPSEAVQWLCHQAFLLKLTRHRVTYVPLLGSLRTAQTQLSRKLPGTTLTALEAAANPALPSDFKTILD

increase in telomerase activity (in words) (concentrations of 0.062-0.25 μg/ml): significant increase
% increase in Telomerase activity (ecdysterone 0.062 μg/ml): 62.1%
% increase in Telomerase activity (ecdysterone 0.125 μg/ml): 64.7%
% increase in Telomerase activity (ecdysterone 0.25 μg/ml): 63.31%
% increase in Telomerase activity (ecdysterone 0.5 μg/ml): Nil
SMILES: CC(C)(O)CC[C@@H](O)[C@](C)(O)[C@H]1CC[C@@]2(O)C3=CC(=O)[C@@H]4C[C@@H](O)[C@@H](O)C[C@]4(C)[C@H]3CC[C@]12C [Ecdysterone, ecdysterone]

— patent US10548902B1, “Telomerase enhancement potential of ecdysterone” (SAMI LABS LIMITED, priority 2018, dated 2020)
